This is an account of results in patent US11384060B2, “Amide compounds and use thereof” (ALPHALA CO., LTD., priority 2017, dated 2022).

Read-outs that look alike come from different tables or passages of the source. Where only a bound is given, the exact number is not on record here.

For one test, the target named is T1, glucagon receptor (GCGR) (Homo sapiens, UniProt P47871).
T1 construct: expressed in transfected cells; host or cells: CHO-K1 cells overexpressing GCGR (membrane fractions)
Description: I125-glucagon binding assay (competition, GCGR membrane fractions). A digest of the protocol: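 Competition of 0.0625 nM (final) I^125-glucagon for 30 min at 25° C, after 5 min compound preincubation, using 7.5 μg/well GCGR-overexpressing CHO-K1 membranes in 50 mM Tris pH 7.4, 0.5% BSA. Filtration onto PEI-coated GF/B, micro-beta counting, and non-linear regression gave IC50.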

In test [1] the target is T2, glucagon receptor (GCGR) overexpressed CHO-K1 cells or human primary hepatocytes (Homo sapiens, UniProt P47871).
T2 construct: expressed in transfected cells; host or cells: GCGR overexpressed CHO-K1 cells or human primary hepatocytes (endogenous receptor)
T2 sequence (P47871 26-477): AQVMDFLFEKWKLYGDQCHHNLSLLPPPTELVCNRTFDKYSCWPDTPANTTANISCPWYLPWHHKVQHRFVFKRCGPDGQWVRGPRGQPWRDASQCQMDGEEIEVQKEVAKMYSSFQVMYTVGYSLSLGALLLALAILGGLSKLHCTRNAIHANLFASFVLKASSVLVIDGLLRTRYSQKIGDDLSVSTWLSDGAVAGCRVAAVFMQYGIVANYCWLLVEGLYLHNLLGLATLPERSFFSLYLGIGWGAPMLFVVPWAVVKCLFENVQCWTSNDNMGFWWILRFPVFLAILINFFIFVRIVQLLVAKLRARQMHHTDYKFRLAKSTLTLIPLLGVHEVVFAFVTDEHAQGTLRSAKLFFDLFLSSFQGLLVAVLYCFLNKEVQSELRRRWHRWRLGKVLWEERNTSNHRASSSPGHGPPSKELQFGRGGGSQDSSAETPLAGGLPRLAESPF
Description: Glucagon cAMP inhibition assay (Cisbio cAMP Dynamic 2 HTRF). The format is cell-based. A digest of the protocol:
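HTRF read-out of glucagon-induced cAMP, with IC50 from non-linear regression. Cells (GCGR CHO-K1 or human primary hepatocytes) in HBSS/0.1% BSA/800 nM IBMX took compound dilutions for 30 min (final DMSO 1%), then EC50-level glucagon for 30 min at room temperature, then a 60 min lysis/detection step.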

The mark [2] stands for this setting: competition with I125-glucagon 0.0625 nM, membrane fractions of GCGR overexpressed CHO-K1 cells.
Where [3] appears, read: inhibition of glucagon (EC50 concentration) induced cAMP production.

T1 sequence (P47871 26-477): as above

For the molecule `C[C@@H](Cc1ccc(-c2ccc(Cl)cc2Cl)cc1)Nc1ccc(C(=O)NCCC(=O)O)cc1` [Compound 19-2, (S)-3-(4-((1-(2′,4′-dichloro-[1,1′-biphenyl]-4-yl)propan-2-yl)amino)benzamido)propanoic Acid], at glucagon receptor (GCGR), the half-inhibitory concentration (IC50) was 6.32 µM. Besides, the “IC50 cAMP” value in test [1] stood at 5.186 µM.
Molecule `CC[C@H](C)[C@@H](COc1cc(Cl)c(-c2ccc(C(F)(F)F)cc2Cl)cc1Cl)Nc1ccc(C(=O)NCCC(=O)O)cc1` [Compound 3-20, 3-(4-(((2S,3S)-3-methyl-1-((2,2′,5-trichloro-4′-(trifluoromethyl)-[1,1′-biphenyl]-4-yl)oxy)pentan-2-yl)amino)benzamido)propanoic Acid] displayed an IC50 on glucagon receptor (GCGR) (setting [2]) of 0.073 µM. The “IC50 cAMP” value in test [1] (setting [3]) was determined as 0.044 µM.
In turn, `CC[C@H](C)[C@@H](COc1ccc(-c2ccc(Cl)cc2Cl)cc1)Nc1ccc(C(=O)NCCC(=O)O)cn1` [Compound 4-3, 3-(6-(((2S,3S)-1-((2′,4′-dichloro-[1,1′-biphenyl]-4-yl)oxy)-3-methylpentan-2-yl)amino)nicotinamido)propanoic Acid] showed an IC50 at glucagon receptor (GCGR) (setting [2]) of 0.61 µM. In test [1] (setting [3]), the “IC50 cAMP” value came out at 0.414 µM.
The matching figures for `CC(C)[C@@H](COc1ccc(-c2ccc(N(C)C)cc2)cc1)Nc1ccc(C(=O)NC[C@@H](O)C(=O)O)cc1` [Compound 1-21, (R)-3-(4-(((S)-1-((4′-(dimethylamino)-[1,1′-biphenyl]-4-yl)oxy)-3-methylbutan-2-yl)amino)benzamido)-2-hydroxypropanoic Acid]: over 30 µM and over 30 µM.
As to `CC(C)COC[C@@H](Cc1ccc(-c2ccc(OC(F)(F)F)cc2)cc1)Nc1ccc(C(=O)NCCC(=O)O)cc1` [Compound 19-19, (R)-3-(4-((1-isobutoxy-3-(4′-(trifluoromethoxy)-[1,1′-biphenyl]-4-yl)propan-2-yl)amino)benzamido)propanoic Acid], on glucagon receptor (GCGR), the IC50 is 0.317 µM. Also, the “IC50 cAMP” value in test [1] worked out at 0.5825 µM.
On to `CCCC[C@@H](COc1ccc(-c2cc(Cl)cc(Cl)c2)nc1)Nc1ccc(C(=O)NCCC(=O)O)cc1` [Compound 10-10, (S)-3-(4-((1-((6-(3,5-dichlorophenyl)pyridin-3-yl)oxy)hexan-2-yl)amino)benzamido) propanoic Acid], for which the half-inhibitory concentration (IC50) at glucagon receptor (GCGR) (setting [2]) came to 0.314 µM. The “IC50 cAMP” value in test [1] (setting [3]) came to 0.493 µM.
The like results for `CCCC[C@@H](COc1ccc(-c2nnc(C(F)(F)F)o2)c(F)c1)Nc1ccc(C(=O)NCCC(=O)O)cc1` [Compound 8-24, (S)-3-(4-((1-(3-fluoro-4-(5-(trifluoromethyl)-1,3,4-oxadiazol-2-yl)phenoxy)hexan-2-yl)amino)benzamido)propanoic Acid] were, in that order, 0.366 µM and 2.701 µM.
Turning to `CC[C@H](C)[C@@H](COc1ccc(-c2ccc(Cl)cc2Cl)cc1)Nc1ccc(C(=O)NCCC(=O)O)cc1` [Compound 1-7, 3-(4-(((2S,3S)-1-((2′,4′-dichloro-[1,1′-biphenyl]-4-yl)oxy)-3-methylpentan-2-yl)amino)benzamido)propanoic Acid], at glucagon receptor (GCGR) (setting [2]), the IC50 turned out to be 0.139 µM. For the same molecule, in test [1] (setting [3]), the “IC50 cAMP” value came out at 0.4948 µM.
Turning to `CCCC[C@@H](COc1ccc(-c2ccc(C(F)(F)F)cc2Cl)c(C)n1)Nc1ccc(C(=O)NCCC(=O)O)cc1` [Compound 18-2, (S)-3-(4-((1-((5-(2-chloro-4-(trifluoromethyl)phenyl)-6-methylpyridin-2-yl)oxy)hexan-2-yl)amino)benzamido)propanoic Acid], the IC50 at glucagon receptor (GCGR) was 0.042 µM. Further, in test [1], the “IC50 cAMP” value is 0.049 µM.
In the case of `CC(C)[C@@H](COc1ccc(-c2ccc(C(F)(F)F)cc2Cl)nc1)Nc1ccc(C(=O)NCCC(=O)O)cc1` [Compound 10-2], at glucagon receptor (GCGR) (setting [2]), the IC50 amounted to 0.255 µM. Further, in test [1] (setting [3]), the “IC50 cAMP” value amounted to 1.805 µM.
With `CCOC(=O)CCNC(=O)c1ccc(N[C@H](COc2ccc(-c3nc4ccccc4s3)cc2)C(C)C)cc1` [Compound 1-30], the IC50 on glucagon receptor (GCGR) (setting [2]) came to 7.63 µM. The “IC50 cAMP” value in test [1] (setting [3]) was found to be 1.214 µM.
As to `CC(C)COC[C@H](Cc1ccc(-c2cc3ccccc3o2)cc1)Nc1ccc(C(=O)NCCC(=O)O)cc1` [Compound 19-32, (S)-3-(4-((1-(4-(benzofuran-2-yl)phenyl)-3-isobutoxypropan-2-yl)amino)benzamido)propanoic Acid], at glucagon receptor (GCGR), the IC50 stood at 0.483 µM. Also, the “IC50 cAMP” value in test [1] came out at 1.017 µM.
As to `CCOC(=O)CCNC(=O)c1ccc(N[C@H](CC(C)C)C(=O)Nc2ccc(-c3cc4ccccc4o3)cc2)cc1` [Compound 24-1], the IC50 on glucagon receptor (GCGR) (uM) was over 10 µM. Further, the “IC50 cAMP” value in test [1] was found to be 1.5 µM.
`CC(C)(C)c1nnc(-c2ccc(OC[C@@H](Nc3ccc(C(=O)NCCC(=O)O)cc3)c3ccc(-c4ccc(C(F)(F)F)cc4F)cc3)nc2)o1` [Compound 15-32, (S)-3-(4-((2-((5-(5-(tert-butyl)-1,3,4-oxadiazol-2-yl)pyridin-2-yl)oxy)-1-(2′-fluoro-4′-(trifluoromethyl)-[1,1′-biphenyl]-4-yl)ethyl)amino)benzamido)propanoic Acid]: the concentration for half-maximal inhibition (IC50) at glucagon receptor (GCGR) came out at 0.151 µM. Further, in test [1], the “IC50 cAMP” value was determined as 0.809 µM.
At glucagon receptor (GCGR) (setting [2]), `CCCC[C@@H](COc1ccc(-c2nnc(-c3ccccc3)o2)cc1)Nc1ccc(C(=O)NCCC(=O)O)cc1` [Compound 1-50, (S)-3-(4-((1-(4-(5-phenyl-1,3,4-oxadiazol-2-yl)phenoxy)hexan-2-yl)amino)benzamido)propanoic Acid] had a half-inhibitory concentration (IC50) of 0.715 µM. Besides, in test [1] (setting [3]), the “IC50 cAMP” value is 1.622 µM.
The matching figures for `CC(C)C[C@@H](COc1cc(F)c(-c2cc(Cl)cc(Cl)c2)c(F)c1)Nc1ccc(C(=O)NCCC(=O)O)cc1` [Compound 7-9, (S)-3-(4-((1-((3′,5′-dichloro-2,6-difluoro-[1,1′-biphenyl]-4-yl)oxy)-4-methylpentan-2-yl)amino)benzamido)propanoic Acid]: 0.262 µM and 0.816 µM.
Regarding `CCCC[C@@H](COc1nnc(-c2ccc(C(F)(F)F)cc2)o1)Nc1ccc(C(=O)NCCC(=O)O)cc1` [Compound 22-5, (S)-3-(4-((1-((5-(4-(trifluoromethyl)phenyl)-1,3,4-oxadiazol-2-yl)oxy)hexan-2-yl)amino)benzamido)propanoic Acid], the IC50 on glucagon receptor (GCGR) is over 30 µM. In addition, the “IC50 cAMP” value in test [1] was over 30 µM.
Regarding `CC(C)[C@H](COc1ccc(-c2nc3ccccc3o2)cc1)Nc1ccc(C(=O)NCCC(=O)O)cc1` [Compound 1-54, (R)-3-(4-((1-(4-(benzo[d]oxazol-2-yl)phenoxy)-3-methylbutan-2-yl)amino)benzamido)propanoic Acid], the IC50 at glucagon receptor (GCGR) (setting [2]) stood at 0.095 µM. For the same molecule, the “IC50 cAMP” value in test [1] (setting [3]) came to 0.213 µM.
For `O=C(O)CCNC(=O)c1ccc(N[C@H](COc2ccc(-c3cc4ccccc4o3)cn2)c2ccccc2)cc1` [Compound 15-5, (S)-3-(4-((2-((5-(benzofuran-2-yl)pyridin-2-yl)oxy)-1-phenylethyl)amino)benzamido)propanoic Acid], the half-maximal inhibitory concentration (IC50) on glucagon receptor (GCGR) stood at 0.706 µM. For the same molecule, the “IC50 cAMP” value in test [1] is 2.067 µM.
On glucagon receptor (GCGR) (setting [2]), `CC[C@H](C)[C@@H](COc1cc(C)c(-c2ccc(C(F)(F)F)cc2)c(C)c1)Nc1ccc(C(=O)NCCC(=O)O)cc1` [Compound 2-10, 3-(4-(((2S,3S)-1-((2,6-dimethyl-4′-(trifluoromethyl)-[1,1′-biphenyl]-4-yl)oxy)-3-methylpentan-2-yl)amino)benzamido)propanoic Acid] returned an IC50 of 0.09 µM. For the same molecule, the “IC50 cAMP” value in test [1] (setting [3]) is 0.2414 µM.
Turning to `CCCOC[C@H](Cc1ccc(-c2ccc(C(C)(C)C)cc2)cc1)Nc1ccc(C(=O)NCCC(=O)O)cc1` [Compound 19-12, (S)-3-(4-((1-(4′-(tert-butyl)-[1,1′-biphenyl]-4-yl)-3-propoxypropan-2-yl)amino)benzamido)propanoic Acid], the 50% inhibitory concentration (IC50) at glucagon receptor (GCGR) amounted to 0.763 µM. The “IC50 cAMP” value in test [1] stood at 1.788 µM.
At glucagon receptor (GCGR) (setting [2]), `CCCC[C@@H](COc1ccc(-c2cc3ccccc3o2)nc1)Nc1ccc(C(=O)NCCC(=O)O)cc1` [Compound 10-12, (S)-3-(4-((1-((6-(benzofuran-2-yl)pyridin-3-yl)oxy)hexan-2-yl)amino)benzamido)propanoic Acid] came in with a half-inhibitory concentration (IC50) of 0.181 µM. The “IC50 cAMP” value in test [1] (setting [3]) came to 0.7916 µM.
As to `CC(C)COC[C@H](Cc1ccc(-c2ccc(C(F)(F)F)cc2)cc1)Nc1ccc(C(=O)NCCC(=O)O)cc1` [Compound 19-34, (S)-3-(4-((1-isobutoxy-3-(4′-(trifluoromethyl)-[1,1′-biphenyl]-4-yl)propan-2-yl)amino)benzamido)propanoic Acid], the half-inhibitory concentration (IC50) on glucagon receptor (GCGR) turned out to be 0.38 µM. Besides, the “IC50 cAMP” value in test [1] came to 0.487 µM.
`CC[C@H](C)[C@@H](CSc1ccc(-c2cc3ccccc3o2)cc1)Nc1ccc(C(=O)NCCC(=O)O)cc1` [Compound 5-3, 3-(4-(((2S,3S)-1-((4-(benzofuran-2-yl)phenyl)thio)-3-methylpentan-2-yl)amino)benzamido)propanoic Acid]: the IC50 at glucagon receptor (GCGR) (setting [2]) was determined as 0.4 µM. Also, in test [1] (setting [3]), the “IC50 cAMP” value came out at 0.9469 µM.
With `CC(C)C[C@@H](COc1ccc(-c2ccc(Cl)cc2Cl)nn1)Nc1ccc(C(=O)NCCC(=O)O)cc1` [Compound 17-2, (S)-3-(4-((1-((6-(2,4-dichlorophenyl)pyridazin-3-yl)oxy)-4-methylpentan-2-yl)amino)benzamido)propanoic Acid], the IC50 at glucagon receptor (GCGR) (setting [2]) is 0.139 µM. Further, the “IC50 cAMP” value in test [1] (setting [3]) was determined as 0.716 µM.
The molecule `CC(C)C[C@@H](COc1cc(F)c(-c2ccc(C(F)(F)F)cc2F)c(F)c1)Nc1ccc(C(=O)NCCC(=O)O)cc1` [Compound 7-7, (S)-3-(4-((4-methyl-1-((2,2′,6-trifluoro-4′-(trifluoromethyl)-[1,1′-biphenyl]-4-yl)oxy)pentan-2-yl)amino)benzamido)propanoic Acid] yielded a half-maximal inhibitory concentration (IC50) on glucagon receptor (GCGR) (setting [2]) of 0.307 µM. For the same molecule, the “IC50 cAMP” value in test [1] (setting [3]) amounted to 0.689 µM.

As a reminder, the IC50 is the concentration at which inhibition is half-maximal. Low readings indicate greater potency, high ones weaker potency.
